In US20080119412A1, “Polypeptides for Modulating Binding of Trp Channel Proteins and Trp- Associated Proteins” (NoNO Inc., priority 2003, published 2008):
Residues, ends and D or L forms follow the SMILES beside them. *: point of attachment. Biotin = O=C1N[C@H]2[C@H](CS[C@H]2CCCCC(=O)*)N1

Experiments:
Assay in all cases: G3 assay titration, GST-PDZ fusion / biotinylated peptide
Assay type in all cases: binding
[1] = molecular target: T1, INADL d3 (Homo sapiens, UniProt Q8NI35)
T1 construct: made in house; host or cells: E. coli (DH5alpha, BL21 or JM109)
T1 sequence (Q8NI35 with tags, fused parts or gaps): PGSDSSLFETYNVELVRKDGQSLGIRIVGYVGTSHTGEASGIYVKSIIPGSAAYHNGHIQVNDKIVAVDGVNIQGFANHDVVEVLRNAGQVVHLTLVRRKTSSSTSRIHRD
In short: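 ELISA with anti-GST-captured GST-PDZ fusions (5 μg/ml), probed by biotinylated Tat-TRPM7 C-terminal peptide precomplexed 20 min with HRP-streptavidin. Binding ran 30 min at room temperature; TMB read at 450 nm. Peptide was titrated from 0.002 to 2 μM and data fitted to a binding equation.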

[2] = molecular target: T2, LIM Mystique d1 (Homo sapiens, UniProt Q96JY6)
T2 construct: made in house; host or cells: E. coli (DH5alpha, BL21 or JM109)
T2 sequence (Q96JY6 1-91): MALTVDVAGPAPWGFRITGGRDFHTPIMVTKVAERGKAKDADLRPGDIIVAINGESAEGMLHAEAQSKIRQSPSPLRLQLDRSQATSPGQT

[3] = molecular target: T3, MAST2 d1 (Homo sapiens, UniProt Q6P0Q8)
T3 construct: made in house; host or cells: E. coli (DH5alpha, BL21 or JM109)
T3 sequence (Q6P0Q8 with tags, fused parts or gaps): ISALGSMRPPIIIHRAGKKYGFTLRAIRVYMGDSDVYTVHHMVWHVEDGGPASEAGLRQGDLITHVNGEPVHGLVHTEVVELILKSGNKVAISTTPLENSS

[4] = molecular target: T4, PAR3L d3 (Homo sapiens, UniProt Q8TEW8)
T4 construct: made in house; host or cells: E. coli (DH5alpha, BL21 or JM109)
T4 sequence (Q8TEW8 with tags, fused parts or gaps): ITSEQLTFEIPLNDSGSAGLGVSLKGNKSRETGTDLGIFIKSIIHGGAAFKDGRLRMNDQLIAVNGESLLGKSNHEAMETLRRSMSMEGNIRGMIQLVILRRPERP

[5] = molecular target: T5, RIM2 d1 (Homo sapiens, UniProt Q9UQ26)
T5 construct: made in house; host or cells: E. coli (DH5alpha, BL21 or JM109)
T5 sequence (Q9UQ26 632-757): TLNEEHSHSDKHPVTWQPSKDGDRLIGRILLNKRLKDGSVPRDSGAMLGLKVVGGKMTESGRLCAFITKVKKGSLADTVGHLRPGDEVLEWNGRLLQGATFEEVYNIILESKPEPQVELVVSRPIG

[6] = molecular target: T6, SITAC-18 d2 (Homo sapiens, UniProt Q9H190)
T6 construct: made in house; host or cells: E. coli (DH5alpha, BL21 or JM109)
T6 sequence (Q9H190 with tags, fused parts or gaps): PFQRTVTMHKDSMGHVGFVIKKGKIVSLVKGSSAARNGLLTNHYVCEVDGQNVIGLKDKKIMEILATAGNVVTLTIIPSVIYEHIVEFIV

[7] = molecular target: T7, Syntrophin 1 alpha d1 (Homo sapiens, UniProt Q13424)
T7 construct: made in house; host or cells: E. coli (DH5alpha, BL21 or JM109)
T7 sequence (Q13424 84-177): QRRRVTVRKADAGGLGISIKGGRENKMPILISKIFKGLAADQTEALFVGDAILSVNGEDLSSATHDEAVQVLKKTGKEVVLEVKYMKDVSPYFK

CSCC[C@H](NC(=O)[C@H](CC(C)C)NC(=O)[C@H](CCCNC(=N)N)NC(=O)[C@@H](NC(=O)[C@H](CO)NC(=O)[C@H](CC(N)=O)NC(=O)[C@@H](NC(=O)[C@H](CO)NC(=O)[C@H](CCCNC(=N)N)NC(=O)[C@H](CCCNC(=N)N)NC(=O)[C@H](CCCNC(=N)N)NC(=O)[C@H](CCC(N)=O)NC(=O)[C@H](CCCNC(=N)N)NC(=O)[C@H](CCCNC(=N)N)NC(=O)[C@H](CCCCN)NC(=O)[C@H](CCCCN)NC(=O)[C@H](CCCNC(=N)N)NC(=O)CNC(=O)[C@H](Cc1ccc(O)cc1)NC(=O)CCCC[C@@H]1SC[C@@H]2NC(=O)N[C@@H]21)[C@@H](C)O)C(C)C)C(=O)N[C@@H](CC(C)C)C(=O)O [Tat-TRPM7 peptide] (Biotin-YGRKKRRQRRRSTNSVRLML-OH)
EC50 [1]: 120 nM | EC50 [2]: 90 nM | EC50 [3]: 110 nM | EC50 [4]: 100 nM | EC50 [5]: 47 nM | EC50 [6]: 90 nM | EC50 [7]: 160 nM
